Reference: ChEMBL document CHEMBL1141048, “5-Substituted 4-anilinoquinazolines as potent, selective and orally active inhibitors of erbB2 receptor tyrosine kinase” (Bioorg Med Chem Lett, 2005)

How the values were obtained:
[1] = target: Epidermal growth factor receptor (Homo sapiens, UniProt P00533); assay: Inhibitory concentration against EGFR kinase phosphorylation using synthetic peptide as a substrate
[2] = target: T1, Receptor tyrosine-protein kinase erbB-2 (Homo sapiens, UniProt P04626); assay: Inhibitory concentration against erbB2 kinase phosphorylation using synthetic peptide as a substrate
KB [3] = assay: Inhibitory concentration of compound against KB Basal; conditions: Homo sapiens
[4] = target: T1, Receptor tyrosine-protein kinase erbB-2; assay: Inhibitory concentration against erbB2 autophosphorylation in MCF-7 breast carcinoma cell line; type: functional, cell-based, MCF7
KB [5] = assay: Inhibitory concentration of compound against KB using a sandwich ELISA; conditions: Homo sapiens
BT-474 = assay: Inhibitory concentration of compound against BT474C using standard MTT colorimetric endpoint; conditions: Homo sapiens
[6] = Plasma concentration of compound after 24 hours of administration of 100 mg/kg through peroral route; conditions: mouse, po
[7] = Bioavailability of compound in Mice after administration of 5 mg/kg through peroral route; type: ADME, organism-based; conditions: mouse, in vivo, po, read-out: Bioavailabiility
[8] = AUC in Mice after administration of 5 mg/kg through peroral route; type: ADME, organism-based; parameters: dose 5 mg/kg, route oral; conditions: mouse, plasma, po
[9] = Steady state volume of Distribution of compound in Mice after administration of 2 mg/kg through intra venous route; type: ADME, organism-based; parameters: dose 2 mg/kg; conditions: mouse, in vivo, iv, read-out: Vdss
[10] = Clearance of compound in Mice after administration of 2 mg/kg through intra venous route; type: ADME, organism-based; parameters: dose 2 mg/kg; conditions: mouse, in vivo, iv
[11] = Clearance of compound in Mice after administration of 5 mg/kg through peroral route; type: ADME, organism-based; parameters: dose 5 mg/kg, route oral; conditions: mouse, in vivo, po
[12] = Steady state volume of Distribution of compound in Mice after administration of 5 mg/kg through peroral route; type: ADME, organism-based; parameters: dose 5 mg/kg, route oral; conditions: mouse, in vivo, po
[13] = AUC in Mice after administration of 5 mg/kg through oral route; conditions: mouse, plasma
[14] = Bioavailability of compound in Mice after administration of 2 mg/kg through intra venous route; type: ADME, organism-based; conditions: mouse, in vivo, intravenous, read-out: Bioavailabiility
[15] = Plasma concentration of compound after 16 hours of administration of 100 mg/kg through peroral route; conditions: mouse, po
[16] = Plasma concentration of compound after 2 hours of administration of 100 mg/kg through peroral route; conditions: mouse, po
[17] = Plasma concentration of compound after 4 hours of administration of 100 mg/kg through peroral route; conditions: mouse, po
[18] = Plasma concentration of compound after 6 hours of administration of 100 mg/kg through peroral route; conditions: mouse, po

T1 sequence (P04626 whole entry): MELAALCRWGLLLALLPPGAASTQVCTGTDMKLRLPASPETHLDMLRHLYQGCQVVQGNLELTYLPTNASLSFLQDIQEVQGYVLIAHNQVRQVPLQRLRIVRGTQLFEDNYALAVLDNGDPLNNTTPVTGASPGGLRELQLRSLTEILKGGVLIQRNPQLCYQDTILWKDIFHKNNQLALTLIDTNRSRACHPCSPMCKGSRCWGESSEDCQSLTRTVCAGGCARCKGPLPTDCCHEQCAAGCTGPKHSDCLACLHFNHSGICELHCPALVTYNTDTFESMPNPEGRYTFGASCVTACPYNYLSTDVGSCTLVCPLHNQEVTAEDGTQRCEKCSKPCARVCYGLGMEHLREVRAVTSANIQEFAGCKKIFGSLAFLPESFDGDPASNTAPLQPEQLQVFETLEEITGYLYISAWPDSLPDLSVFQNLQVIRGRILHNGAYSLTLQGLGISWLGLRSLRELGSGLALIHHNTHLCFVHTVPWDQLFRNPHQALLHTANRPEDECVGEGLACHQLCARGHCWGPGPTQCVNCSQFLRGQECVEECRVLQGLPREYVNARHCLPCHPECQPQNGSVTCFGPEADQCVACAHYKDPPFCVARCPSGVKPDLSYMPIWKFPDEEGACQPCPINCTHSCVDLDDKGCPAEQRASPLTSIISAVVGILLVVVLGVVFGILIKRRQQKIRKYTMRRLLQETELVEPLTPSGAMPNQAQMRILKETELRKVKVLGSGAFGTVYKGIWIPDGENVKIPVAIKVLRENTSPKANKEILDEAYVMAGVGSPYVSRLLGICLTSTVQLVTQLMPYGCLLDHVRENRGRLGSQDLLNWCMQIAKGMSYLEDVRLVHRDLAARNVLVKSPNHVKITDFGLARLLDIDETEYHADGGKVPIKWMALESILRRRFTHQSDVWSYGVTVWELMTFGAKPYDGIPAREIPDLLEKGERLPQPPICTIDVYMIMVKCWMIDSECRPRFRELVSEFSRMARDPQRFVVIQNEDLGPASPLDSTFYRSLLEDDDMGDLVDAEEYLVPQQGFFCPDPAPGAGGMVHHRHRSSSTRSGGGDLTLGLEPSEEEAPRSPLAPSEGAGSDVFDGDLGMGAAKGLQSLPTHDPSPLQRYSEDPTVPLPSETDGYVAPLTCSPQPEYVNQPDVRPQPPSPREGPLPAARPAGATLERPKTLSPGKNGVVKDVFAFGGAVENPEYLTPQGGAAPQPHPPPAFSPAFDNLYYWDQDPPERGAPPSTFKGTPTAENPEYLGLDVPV
Sequence of Epidermal growth factor receptor (P00533 whole entry): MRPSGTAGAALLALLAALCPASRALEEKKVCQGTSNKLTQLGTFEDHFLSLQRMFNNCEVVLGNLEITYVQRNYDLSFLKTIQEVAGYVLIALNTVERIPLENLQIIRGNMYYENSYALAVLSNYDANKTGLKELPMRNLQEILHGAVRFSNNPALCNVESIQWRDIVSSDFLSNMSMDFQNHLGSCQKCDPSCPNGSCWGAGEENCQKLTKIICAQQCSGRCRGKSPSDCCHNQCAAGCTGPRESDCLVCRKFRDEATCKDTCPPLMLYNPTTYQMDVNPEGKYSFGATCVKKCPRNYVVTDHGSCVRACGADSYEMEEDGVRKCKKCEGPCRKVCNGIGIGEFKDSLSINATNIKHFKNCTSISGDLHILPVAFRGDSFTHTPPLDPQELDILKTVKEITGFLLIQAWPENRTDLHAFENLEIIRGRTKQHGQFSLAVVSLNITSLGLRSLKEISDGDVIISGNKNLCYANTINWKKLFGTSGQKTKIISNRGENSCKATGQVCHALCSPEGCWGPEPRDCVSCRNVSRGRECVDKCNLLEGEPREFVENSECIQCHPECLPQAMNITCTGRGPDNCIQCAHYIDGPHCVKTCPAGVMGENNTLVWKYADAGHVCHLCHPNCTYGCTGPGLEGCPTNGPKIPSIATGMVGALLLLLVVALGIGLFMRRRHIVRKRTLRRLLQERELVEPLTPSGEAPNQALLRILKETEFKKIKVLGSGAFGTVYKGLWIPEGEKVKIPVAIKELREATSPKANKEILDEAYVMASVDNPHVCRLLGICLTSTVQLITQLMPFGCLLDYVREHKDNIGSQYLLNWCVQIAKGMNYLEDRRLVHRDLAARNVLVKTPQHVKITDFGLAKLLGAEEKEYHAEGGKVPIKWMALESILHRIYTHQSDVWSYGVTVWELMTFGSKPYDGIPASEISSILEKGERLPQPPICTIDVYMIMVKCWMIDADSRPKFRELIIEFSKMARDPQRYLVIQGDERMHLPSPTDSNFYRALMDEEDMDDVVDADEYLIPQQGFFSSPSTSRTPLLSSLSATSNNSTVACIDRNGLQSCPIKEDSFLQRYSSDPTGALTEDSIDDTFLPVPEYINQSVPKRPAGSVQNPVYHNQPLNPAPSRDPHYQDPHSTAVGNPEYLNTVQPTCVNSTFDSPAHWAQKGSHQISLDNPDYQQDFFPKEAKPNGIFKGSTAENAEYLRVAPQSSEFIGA

COc1cc2ncnc(Nc3ccc(OCc4ccccn4)c(C)c3)c2cc1OC
IC50 [1]: 59 nM | IC50 [2]: 56 nM

CN1CCC(Oc2cccc3ncnc(Nc4ccc(OCc5cccc(F)c5)c(Cl)c4)c23)CC1
IC50 (KB [3]): 1700 nM | IC50 [1]: 5 nM | IC50 [4]: 56 nM | IC50 (KB [5]): 460 nM | IC50 (BT-474): 2.7 nM | IC50 [2]: < 2 nM

CN1CCC(Oc2cccc3ncnc(Nc4ccc(OCc5ccccn5)c(Cl)c4)c23)CC1
IC50 (KB [3]): 11900 nM | IC50 [1]: 140 nM | concentration at 24 h [6]: 1.1 µM | bioavailability [7]: 50% | AUC [8]: 5.5 µM·h | Vd [9]: 2.6 L/kg | IC50 [4]: 61 nM | clearance [10]: 15 mL/min/kg | CL/F [11]: 15 mL/min/kg | IC50 (KB [5]): 2600 nM | Vdss [12]: 2.6 L/kg | IC50 (BT-474): 41 nM | AUC [13]: 5.5 µM·h | bioavailability [14]: 50% | concentration at 16 h [15]: 2.2 µM | concentration at 2 h [16]: 9.2 µM | concentration at 4 h [17]: 7.2 µM | concentration at 6 h [18]: 6.9 µM | IC50 [2]: < 2 nM

Clc1cc(Nc2ncnc3cccc(OC4CCOCC4)c23)ccc1OCc1ccccn1
IC50 [1]: 2400 nM | IC50 [2]: 24 nM

COc1cccc2ncnc(Nc3ccc(OCc4ccccn4)c(Cl)c3)c12
IC50 [1]: 440 nM | IC50 [2]: 24 nM

CN1CCC(Oc2cccc3ncnc(Nc4ccc(OCc5cnccn5)c(Cl)c4)c23)CC1
IC50 [1]: 690 nM | IC50 [2]: < 2 nM

CN1CCC(Oc2cccc3ncnc(Nc4ccc(OCc5cscn5)c(Cl)c4)c23)CC1
IC50 [1]: 698 nM | IC50 [2]: < 2 nM

COc1ccc(Nc2ncnc3cccc(OC4CCN(C)CC4)c23)cc1Cl
IC50 [1]: 1800 nM | IC50 [2]: 1100 nM

CN1CCC(Oc2cccc3ncnc(Nc4ccc(OCc5ccccn5)cc4)c23)CC1
IC50 [1]: 2100 nM | IC50 [2]: 70 nM
